We go through 17 compounds from patent US6867192B1, “Compounds useful in the treatment of inflammatory diseases” (priority 1998, dated 2005).

The experiment has as its target T1, integrin VLA-4, expressed on the Jurkat J6 (human lymphoblast cell line) cell membrane with VCAM-1 (Homo sapiens, UniProt P05556+P13612).
T1 construct: integrin VLA-4, expressed on the Jurkat J6 (human lymphoblast cell line) cell membrane; endogenous in cells; host or cells: Jurkat J6 cells (integrin). zzVCAM-1 was made in house in Drosophila melanogaster S2 cells
Kind of experiment: Jurkat J6/VCAM-1 adhesion assay. The format is cell-based. The note with it: Jurkat J6 cell adhesion to VCAM-1, 1 mM MnCl2; mean of n experiments. The protocol:
(1) Jurkat J6/VCAM-1 Adhesion Assay
This assay was used to investigate the interaction of the integrin VLA-4, expressed on the Jurkat J6 (human lymphoblast cell line) cell membrane with VCAM-1. Polystyrene 96-well microtitre plates were coated with human immunoglobulin G (IgG; Sigma Chemicals, UK, Product No. 14506) at a concentration of 0.05 mg ml^−1 in bicarbonate buffer (36 mM NaHCO3 and 22 mM Na2CO3, prepared in Dulbecco's phosphate buffered saline at pH 9.8 (PBS); Sigma Chemicals, UK, Product No. 14190-094) for 2 hours at 37° C. This solution was then aspirated and the plates were washed twice with PBS.
VCAM-1 was prepared by cloning its constituent seven domains into a Drosophila expression system with a zz (Protein A) tag. This zzVCAM-1 was then expressed from Drosophila melanogaster S2 cell culture, induced with copper. Protease inhibitors were added and the culture supernatant was clarified either by filtration through a 0.2 μm filter or by centrifugation. The zzVCAM-1 was then purified from this clarified medium using an IgG agarose column, equilibrated with either 20 mM sodium phosphate pH 7.2 alone or in the presence of 0.5M sodium chloride. Elution of zzVCAM-1 from the column was mediated using 3M ammonium thiocyanate, which was subsequently removed using a G25 desalting column, equilibrated with 20 mM sodium phosphate, pH 7.2. The purified zzVCAM-1 was then concentrated to a small volume (Amicon stirred cell concentrators) until a concentration of 62.5 ng ml^−1 was obtained, calculated using the extinction coefficient value.
This solution of zzVCAM-1 was then incubated overnight at 4° C. in the IgG coated microtitre plates with 3% bovine serum albumin (BSA) in PBS, followed by aspiration and two further washes with PBS. A concentration of the Jurkat J6 cells (6×10^6 cels ml^−1), grown in cell media RPMI 1640 (HyClone Ltd, Product No. B-9106-L) supplemented with 10% heat inactivated fetal calf serum (FCS; Gibco BRL, Product No. 10099-075) and 2 mM L-glutamine, were labelled with 10 μM of the fluorescent dye, 2′, 7′-bis(2-carboxyethyl)-5-(e6)-carboxyfluorescein acetoxymethyl ester (BCECF-AM; Molecular Probes Inc, Product No. B-1150) at 37° C. for 10 minutes. The excess dye was then removed by centrifugation at 500×g for 5 minutes and the cells were resuspended at a concentration of 1.2×10^7 cells ml^−1 in Hank's balanced salt solution (HBSS; Gibco BRL, Product No. 14190-094).
Equal volumes of compounds (dissolved in an appropriate solvent and diluted in HBSS containing 1 mM MnCl2) and the labelled Jurkat J6 cells, were added to the VCAM-1 coated plates and adhesion was allowed to proceed for 30 minutes at 37° C. Non, or loosely adhered cells, were removed by inversion of the plate and blotted with tissue paper. Two washes with PBS and further blotting were then performed, before the addition of 2% detergent (Triton-X®; Sigma Chemicals UK, Product No. X100). Counting was undertaken in a Wallac Viktor™ Fluorimeter, where low fluorescence values were indicative of compounds which had inhibited adhesion. All samples were assayed in singlicate and the following four parameter curve fit, shown by Equation (I) was applied: [formula]
Where a is the minimum, b is the Hill slope, c is the IC50 and d is the maximum. (Maximum and minimum values are those compared to adhesion in the absence of compound and in the presence of the dipotassium salt of 2 mM EDTA; Sigma Chemicals, UK, Product No. ED2P). Data is presented as the mean pIC50 with the standard error of the mean of n experiments.

T1 sequence (P13612 34-1032): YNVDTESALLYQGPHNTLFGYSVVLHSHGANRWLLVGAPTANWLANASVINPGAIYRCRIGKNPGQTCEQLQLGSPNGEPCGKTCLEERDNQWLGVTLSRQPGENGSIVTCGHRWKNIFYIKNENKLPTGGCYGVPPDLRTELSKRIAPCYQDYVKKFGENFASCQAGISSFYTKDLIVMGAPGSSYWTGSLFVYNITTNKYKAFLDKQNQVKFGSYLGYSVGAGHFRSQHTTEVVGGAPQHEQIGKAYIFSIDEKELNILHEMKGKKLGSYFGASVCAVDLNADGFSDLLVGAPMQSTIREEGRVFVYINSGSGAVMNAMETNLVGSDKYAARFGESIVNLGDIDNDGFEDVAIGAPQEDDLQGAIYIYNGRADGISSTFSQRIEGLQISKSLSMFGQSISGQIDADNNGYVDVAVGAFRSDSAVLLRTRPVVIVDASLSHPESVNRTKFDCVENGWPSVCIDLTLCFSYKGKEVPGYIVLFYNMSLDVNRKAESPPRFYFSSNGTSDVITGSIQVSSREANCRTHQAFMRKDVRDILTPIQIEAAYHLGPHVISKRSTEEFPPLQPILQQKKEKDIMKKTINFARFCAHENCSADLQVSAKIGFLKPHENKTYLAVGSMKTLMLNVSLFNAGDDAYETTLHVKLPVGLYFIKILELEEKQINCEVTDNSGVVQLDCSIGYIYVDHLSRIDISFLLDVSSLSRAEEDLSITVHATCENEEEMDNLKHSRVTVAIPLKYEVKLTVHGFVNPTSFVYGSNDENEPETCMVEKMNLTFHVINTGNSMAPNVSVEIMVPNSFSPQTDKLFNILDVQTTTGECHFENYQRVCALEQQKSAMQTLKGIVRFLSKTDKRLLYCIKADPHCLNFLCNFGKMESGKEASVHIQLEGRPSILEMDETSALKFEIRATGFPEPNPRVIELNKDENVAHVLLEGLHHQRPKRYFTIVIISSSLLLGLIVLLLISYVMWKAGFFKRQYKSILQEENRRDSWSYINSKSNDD
T1 sequence (P05556 21-798): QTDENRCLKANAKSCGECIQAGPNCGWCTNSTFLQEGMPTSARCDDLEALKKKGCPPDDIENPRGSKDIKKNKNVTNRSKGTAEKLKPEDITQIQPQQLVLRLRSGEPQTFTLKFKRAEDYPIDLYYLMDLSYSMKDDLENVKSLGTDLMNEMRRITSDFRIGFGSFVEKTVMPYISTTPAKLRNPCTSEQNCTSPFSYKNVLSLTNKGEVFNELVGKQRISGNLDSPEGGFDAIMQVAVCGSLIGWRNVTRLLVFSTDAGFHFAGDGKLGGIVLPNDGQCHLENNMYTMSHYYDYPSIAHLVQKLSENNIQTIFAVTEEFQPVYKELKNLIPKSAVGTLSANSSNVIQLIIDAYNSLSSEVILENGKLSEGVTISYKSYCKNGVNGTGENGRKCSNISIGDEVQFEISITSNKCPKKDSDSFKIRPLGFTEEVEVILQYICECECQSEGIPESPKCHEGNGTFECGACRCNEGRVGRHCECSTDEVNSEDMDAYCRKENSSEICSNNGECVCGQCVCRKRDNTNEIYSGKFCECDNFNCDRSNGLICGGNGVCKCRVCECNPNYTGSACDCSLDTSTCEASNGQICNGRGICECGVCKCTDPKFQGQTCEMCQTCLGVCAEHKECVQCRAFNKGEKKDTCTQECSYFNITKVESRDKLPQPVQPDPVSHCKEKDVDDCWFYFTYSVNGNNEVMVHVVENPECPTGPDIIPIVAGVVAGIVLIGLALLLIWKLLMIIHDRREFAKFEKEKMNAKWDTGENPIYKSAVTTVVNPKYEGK

A word on the IC50: it is the point on the concentration scale where inhibition reaches its midpoint. Low readings indicate greater potency in that assay, high ones weaker potency in that assay. `CC(C)C[C@H](NC(=O)COc1ccc(C(=O)N2CCCCC2)cc1)C(=O)N[C@@H](Cc1ccc(OC(=O)N2CCOCC2)cc1)C(=O)O` [Example 4, (2S)-2-{[(2S)-4-Methyl-2-({2-[4-(1-piperidinylcarbonyl)phenoxy]acetyl}amino)pentanoyl]amino}-3-{4-[(4-morpholinylcarbonyl)oxy]phenyl}propanoic acid] had a 50% inhibitory concentration (IC50) of 16.6 nM.
`CC(C)C[C@H](NC(=O)c1cccc2c1oc1ccccc12)C(=O)N[C@@H](Cc1ccc(OC(=O)N2CCN(C(=O)c3ccco3)CC2)cc1)C(=O)O` [Example 11, (2S)-2-({(2S)-2-[(Dibenzo[b,d]furan-4-ylcarbonyl)amino]-4-methylpentanoyl}amino)-3-[4-({[4-(2-furoyl)-1-piperazinyl]carbonyl}oxy)phenyl]propanoic acid] showed an IC50 of 8.32 nM.
The figure for `CC(C)C[C@H](NC(=O)COc1ccccc1C(=O)c1ccccc1)C(=O)N[C@@H](Cc1ccc(OC(=O)N2CCOCC2)cc1)C(=O)O` [Example 36, (2S)-2-[((2S)-2-{[2-(2-Benzoylphenoxy)acetyl]amino}-4-methylpentanoyl)amino]-3-{4-[(4-morpholinylcarbonyl)oxy]phenyl}propanoic acid] is 12.3 nM; for `CC(C)C[C@H](NC(=O)COc1ccccc1C1CCCCC1)C(=O)N[C@@H](Cc1ccc(OC(=O)N2CCC(NC(=O)CC3CCCCC3)CC2)cc1)C(=O)O` [Example 56, (2S)-3-{4-[({4-[(2-Cyclohexylacetyl)amino]-1-piperidinyl}carbonyl)oxy]phenyl}-2-[((2S)-2-{[2-(2-cyclohexylphenoxy)acetyl]amino}-4-methylpentanoyl)amino]propanoic acid] it is 87.1 nM.
Compound `CC(C)C[C@H](NC(=O)COc1ccccc1C1CCCCC1)C(=O)N[C@@H](Cc1ccc(OC(=O)N2CCOCC2)cc1)C(=O)O` [Example 39, (2S)-2-[((2S)-2-{[2-(2-Cyclohexylphenoxy)acetyl]amino}-4-methylpentanoyl)amino]-3-{4-[(4-morpholinylcarbonyl)oxy]phenyl}propanoic acid] gave an IC50 of 22.4 nM.
For the compound `CC(C)C[C@H](NC(=O)COc1ccc(Cl)cc1Cl)C(=O)N[C@@H](Cc1ccc(OC(=O)N2CCOCC2)cc1)C(=O)O` [Example 35, (2S)-2-[((2S)-2-{[2-(2,4-Dichlorophenoxy)acetyl]amino}-4-methylpentanoyl)amino]-3-{4-[(4-morpholinylcarbonyl)oxy]phenyl}propanoic acid], the IC50 was 6.61 nM.
The figure for `CC(C)C[C@H](NC(=O)COc1ccccc1C(C)(C)C)C(=O)N[C@@H](Cc1ccc(OC(=O)N2CCC(C(=O)NCc3ccc(F)cc3)CC2)cc1)C(=O)O` [Example 34, (2S)-2-{[(2S)-2-({2-[2-(Tert-butyl)phenoxy]acetyl}amino)-4-methylpentanoyl]amino}-3-(4-{[(4-{[(4-fluorobenzyl)amino]carbonyl}-1-piperidinyl)carbonyl]oxy}phenyl)propanoic acid] is 26.9 nM; for `CC(=O)N1CCN(C(=O)Oc2ccc(C[C@H](NC(=O)[C@H](CC(C)C)NC(=O)COc3ccccc3I)C(=O)O)cc2)CC1` [Example 15, (2S)-3-(4-{[(4-Acetyl-1-piperazinyl)carbonyl]oxy}phenyl)-2-[((2S)-2-{[2-(2-iodophenoxy)acetyl]amino}-4-methylpentanoyl)amino]propanoic acid] it is 2.69 nM; for `CC(C)C[C@H](NC(=O)c1cccc2c1oc1ccccc12)C(=O)N[C@@H](Cc1ccc(OC(=O)N2CCN(C(=O)c3ccccc3)CC2)cc1)C(=O)O` [Example 12, (2S)-3-(4-{[(4-Benzoyl-1-piperazinyl)carbonyl]oxy}phenyl)-2-({(2S)-2-[(dibenzo[b,d]furan-4-ylcarbonyl)amino]-4-methylpentanoyl}amino)propanoic acid] it is 11 nM.
Turning to `CC(C)C[C@H](NC(=O)c1cccc2c1oc1ccccc12)C(=O)N[C@@H](Cc1ccc(OC(=O)N2CCC(NC(=O)Cc3ccc(Cl)cc3)CC2)cc1)C(=O)O` [Example 49, (2S)-3-(4-{[(4-{[2-(4-Chlorophenyl)acetyl]amino}-1-piperidinyl)carbonyl]oxy}phenyl)-2-({(2S)-2-[(dibenzo[b,d]furan-4-ylcarbonyl)amino]-4-methylpentanoyl}amino)propanoic acid], the IC50 was 44.7 nM.
`CC(C)C[C@H](NC(=O)COc1ccccc1I)C(=O)N[C@@H](Cc1ccc(OC(=O)N2CCC(NC(=O)Cc3ccc(Cl)cc3)CC2)cc1)C(=O)O` [Example 47, (2S)-3-(4-{[(4-{[2-(4-Chlorophenyl)acetyl]amino}-1-piperidinyl)carbonyl]oxy}phenyl)-2-[((2S)-2-{[2-(2-iodophenoxy)acetyl]amino}-4-methylpentanoyl)amino]propanoic acid] gave an IC50 of 33.1 nM.
`CC(C)C[C@H](NC(=O)COc1ccccc1C1CCCCC1)C(=O)N[C@@H](Cc1ccc(OC(=O)N2CCN(C(=O)c3ccco3)CC2)cc1)C(=O)O` [Example 43, (2S)-2-[((2S)-2-{[2-(2-Cycohexylphenoxy)acetyl]amino}-4-methylpentanoyl)amino]-3-[4-({[4-(2-furoyl)-1-piperazinyl]carbonyl}oxy)phenyl]propanoic acid]: 22.4 nM corresponded to half-maximal inhibition (IC50).
As to `CC(C)C[C@H](NC(=O)COc1ccccc1C(C)(C)C)C(=O)N[C@@H](Cc1ccc(OC(=O)N2CCC(NC(=O)Cc3ccccc3)CC2)cc1)C(=O)O` [Example 51, (2S)-2-{[(2S)-2-({2-[2-(Tert-butyl)phenoxy]acetyl}amino)-4-methylpentanoyl]amino}-3-{4-[({4-[(2-phenylacetyl)amino]-1-piperidinyl}carbonyl)oxy]phenyl}propanoic acid], the midpoint of inhibition, the IC50, lay at 13.8 nM.
Then `CC(C)C[C@H](NC(=O)c1cccc2c1oc1ccccc12)C(=O)N[C@@H](Cc1ccc(OC(=O)N2CCC(NC(=O)Cc3ccccc3)CC2)cc1)C(=O)O` [Example 13, (2S)-2-({(2S)-2-[(Dibenzo[b,d]furan-4-ylcarbonyl)amino]-4-methylpentanoyl}amino)-3-{4-[({4-[(2-phenylacetyl)amino]-1-piperidinyl}carbonyl)oxy]phenyl}propanoic acid], with 25.7 nM.
Take `Cc1ccccc1OCC(=O)N[C@@H](CC(C)C)C(=O)N[C@@H](Cc1ccc(OC(=O)N2CCC(NC(=O)Cc3ccccc3)CC2)cc1)C(=O)O` [Example 54, (2S)-2-[((2S)-4-Methyl-2-{[2-(2-methylphenoxy)acetyl]amino}pentanoyl)amino]-3-{4-[({4-[(2-phenylacetyl)amino]-1-piperidinyl}carbonyl)oxy]phenyl}propanoic acid]: the IC50 is 5.62 nM.
In turn, `CC(=O)N1CCN(C(=O)Oc2ccc(C[C@H](NC(=O)[C@H](CC(C)C)NC(=O)c3cccc4c3oc3ccccc34)C(=O)O)cc2)CC1` [Example 18, (2S)-3-(4-{[(4-Acetyl-1-piperazinyl)carbonyl]oxy}phenyl)-2-({(2S)-2-[(dibenzo[b,d]furan-4-ylcarbonyl)amino]-4-methylpentanoyl}amino)propanoic acid] gave an IC50 of 3.72 nM.
Take `CC(C)C[C@H](NC(=O)COc1ccccc1C(C)(C)C)C(=O)N[C@@H](Cc1ccc(OC(=O)N2CCC(NC(=O)CC3CCCCC3)CC2)cc1)C(=O)O` [Example 52, (2S)-2-{[(2S)-2-({2-[2-(Tert-butyl)phenoxy]acetyl}amino)-4-methylpentanoyl]amino}-3-{4-[({4-[(2-cyclohexylacetyl)amino]-1-piperidinyl}carbonyl)oxy]phenyl}propanoic acid]: the midpoint of inhibition, the IC50, lay at 33.1 nM.
